From US10570122B2, “Compounds with anti-tumoral activity” (AB Science, priority 2015, dated 2020)

Experiments:
KARPAS299 = assay: CellTiter-Blue cell-based survival/proliferation assay, KARPAS299; conditions: Homo sapiens, KARPAS-299, Lymphoma cell line KARPAS299, 48 h, read-out: Anti-tumoral activity (measured IC50) KARPAS299
Method: (§1) Cell-Based Proliferation Screening of Compounds
(§2) CellTiter-Blue cell-based survival/proliferation assay (Promega G8080) was performed on tumor cell lines. A total of 1·10^4 cells/well/50 μl were seeded in a 96-wells plate. Treatment was initiated by addition of a 2× drug solution of 1/10 serial dilutions ranging from 0 to 10 μM. Cells were grown for 48 h at 37° C. and then incubated with 10 μl/well of Promega CellTiter-Bleue reagent for 4 h at 37° C. The amount of resorufin dye formed was quantified by its fluorescence emission at 590 nm using a scanning multiwell spectrophotometer (OPTIMA, BMG labtech, France). A blank well without cells was used as a background control for the spectrophotometer.

HGC27 = assay: CellTiter-Blue cell-based survival/proliferation assay, HGC27; conditions: Homo sapiens, HGC-27; HGC27 stomach tumor cell line, 48 h
Outline: (§3)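 Compounds, diluted tenfold serially over 0–10 μM, are applied to 1·10^4 seeded cells per well for 48 h at 37 °C. Resorufin formed during a further 4 h with CellTiter-Blue is detected by fluorescence emission at 590 nm.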

HL60 = assay: CellTiter-Blue cell-based survival/proliferation assay, HL60; conditions: Homo sapiens, HL-60, Leukemia cell line HL60, 48 h, read-out: Anti-tumoral activity (measured IC50) HL60
Outline: as §3

PLCPRF5 = assay: CellTiter-Blue cell-based survival/proliferation assay, PLCPRF5; conditions: Homo sapiens, PLC-PRF-5; PLC_PRF5 liver tumor cell line, 48 h
Outline: as §3

HCT116 = assay: CellTiter-Blue cell-based survival/proliferation assay, HCT116; conditions: Homo sapiens, HCT-116; HCT116 colorectal tumor cell line, 48 h
Outline: as §3

ACHN = assay: CellTiter-Blue cell-based survival/proliferation assay, ACHN; conditions: Homo sapiens; ACHN kidney tumor cell line, 48 h
Outline: as §3

DU145 = assay: CellTiter-Blue cell-based survival/proliferation assay, DU145; conditions: Homo sapiens, DU-145; DU145 prostate tumor cell line, 48 h
Outline: as §3

MESSA = assay: CellTiter-Blue cell-based survival/proliferation assay, MESSA; conditions: Homo sapiens, MES-SA; MESSA ovary tumor cell line, 48 h
Outline: as §3

A549 = assay: CellTiter-Blue cell-based survival/proliferation assay, A549; conditions: Homo sapiens; A549 lung tumor cell line, 48 h
Outline: as §3

SW579 = assay: CellTiter-Blue cell-based survival/proliferation assay, SW579; conditions: Homo sapiens; SW579 head & neck tumor cell line, 48 h
Outline: as §3

PANC1 = assay: CellTiter-Blue cell-based survival/proliferation assay, PANC1; conditions: Homo sapiens, PANC-1; PANC_1 pancreas tumor cell line, 48 h
Outline: as §3

[1] = test system: panel of about 34 human tumor cell lines; assay: Cell-based proliferation screening on panel of tumor cell lines; conditions: solid tumor cell line, cell line unknown, 48 h, read-out: IC50, solid tumor cell line of column 6 (last section of Table 3)
Outline: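 CellTiter-Blue survival assay with 1·10^4 cells/well, each line treated 48 h at 37° C with 1/10 serial dilutions from 0 to 10 μM. Resorufin formed during a 4 h reagent incubation is read by fluorescence at 590 nm. A cell-free blank serves as background.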

HEP2 = assay: CellTiter-Blue cell-based survival/proliferation assay, HEP2; conditions: Homo sapiens, HEp-2; HEP2 head & neck tumor cell line, 48 h
Outline: as §3

BXPC3 = assay: CellTiter-Blue cell-based survival/proliferation assay, BXPC3; conditions: Homo sapiens, BXPC-3; BXPC3 pancreas tumor cell line, 48 h
Outline: as §3

CLS354 = assay: CellTiter-Blue cell-based survival/proliferation assay, CLS354; conditions: Homo sapiens, CLS-354; CLS354_4 head & neck tumor cell line, 48 h
Outline: as §3

OPM2 = assay: CellTiter-Blue cell-based survival/proliferation assay, OPM2; conditions: Homo sapiens, OPM-2, Myeloma cell line OPM2, 48 h, read-out: Anti-tumoral activity (measured IC50) OPM2
Outline: as §3

BT20 = assay: CellTiter-Blue cell-based survival/proliferation assay, BT20; conditions: Homo sapiens, BT-20; BT20 breast tumor cell line, 48 h
Outline: as §3

H1299 = assay: CellTiter-Blue cell-based survival/proliferation assay, H1299; conditions: Homo sapiens, NCI-H1299; H1299 lung tumor cell line, 48 h
Outline: as §3

AGS = assay: CellTiter-Blue cell-based survival/proliferation assay, AGS; conditions: Homo sapiens; AGS stomach tumor cell line, 48 h
Outline: as §3

A498 = assay: CellTiter-Blue cell-based survival/proliferation assay, A498; conditions: Homo sapiens; A498 kidney tumor cell line, 48 h
Outline: as §3

PC3 = assay: CellTiter-Blue cell-based survival/proliferation assay, PC3; conditions: Homo sapiens, PC-3; PC3 prostate tumor cell line, 48 h
Outline: as §3

CALU6 = assay: CellTiter-Blue cell-based survival/proliferation assay, CALU6; conditions: Homo sapiens, Calu-6; CALU6 lung tumor cell line, 48 h
Outline: as §3

DLD1 = assay: CellTiter-Blue cell-based survival/proliferation assay, DLD1; conditions: Homo sapiens, DLD-1; DLD_1 colorectal tumor cell line, 48 h
Outline: as §3

HUT78 = assay: CellTiter-Blue cell-based survival/proliferation assay, HUT78; conditions: Homo sapiens, Lymphoma cell line HUT78, 48 h, read-out: Anti-tumoral activity (measured IC50) HUT78
Method: as §1, §2

TOV112D = assay: CellTiter-Blue cell-based survival/proliferation assay, TOV112D; conditions: Homo sapiens; TOV112D ovary tumor cell line, 48 h
Outline: as §3

REC1 = assay: CellTiter-Blue cell-based survival/proliferation assay, REC1; conditions: Homo sapiens, Lymphoma cell line REC1, 48 h, read-out: Anti-tumoral activity (measured IC50) REC1
Method: as §1, §2

HEPG2 = assay: CellTiter-Blue cell-based survival/proliferation assay, HEPG2; conditions: Homo sapiens; HEPG2 liver tumor cell line, 48 h
Outline: as §3

MDAMB231 = assay: CellTiter-Blue cell-based survival/proliferation assay, MDAMB231; conditions: Homo sapiens, MDA-MB-231; MDAMB231 breast tumor cell line, 48 h
Outline: as §3

SMILES | IC50 [1] | IC50 (KARPAS299) | IC50 (HGC27) | IC50 (HL60) | IC50 (PLCPRF5) | IC50 (HCT116) | IC50 (ACHN) | IC50 (DU145) | IC50 (MESSA) | IC50 (A549) | IC50 (SW579) | IC50 (PANC1) | IC50 (HEP2) | IC50 (BXPC3) | IC50 (CLS354) | IC50 (OPM2) | IC50 (BT20) | IC50 (H1299) | IC50 (AGS) | IC50 (A498) | also measured
CCOCc1cccc(Nc2ncc(-c3ccc(-n4cccn4)cc3)o2)c1 [Example 020, (3-Ethoxymethyl-phenyl)-[5-(4-pyrazol-1-yl-phenyl)-oxazol-2-yl]-amine] | ≤ 0.1 µM | ≤ 0.1 µM | > 1 µM | ≤ 0.1 µM | > 1 µM | > 1 µM | > 1 µM | > 1 µM | > 1 µM | > 1 µM | > 1 µM | > 1 µM | > 1 µM | 0.5 to 1 µM | ≤ 0.1 µM | ≤ 0.1 µM | > 1 µM | > 1 µM | > 1 µM | > 1 µM | IC50 (PC3): ≤ 0.1 µM; IC50 (CALU6): > 1 µM; IC50 (DLD1): 0.1 to 0.5 µM; IC50 (HUT78): ≤ 0.1 µM; IC50 (TOV112D): > 1 µM; IC50 (REC1): ≤ 0.1 µM; IC50 (HEPG2): > 1 µM; IC50 (MDAMB231): 0.1 to 0.5 µM
CCOCc1ccc(C)c(Nc2ncc(-c3ccc(-n4nccn4)cc3)o2)c1 [Example 036, (5-Ethoxymethyl-2-methyl-phenyl)-[5-(4-[1,2,3]triazol-2-yl-phenyl)-oxazol-2-yl]-amine] | 0.1 to 0.5 µM | ≤ 0.1 µM | ≤ 0.1 µM | 0.1 to 0.5 µM | > 1 µM | > 1 µM | 0.1 to 0.5 µM | > 1 µM | > 1 µM | > 1 µM | > 1 µM | > 1 µM | 0.1 to 0.5 µM | > 1 µM | ≤ 0.1 µM | 0.1 to 0.5 µM | 0.5 to 1 µM | 0.5 to 1 µM | ≤ 0.1 µM | > 1 µM | IC50 (PC3): 0.1 to 0.5 µM; IC50 (CALU6): 0.5 to 1 µM; IC50 (DLD1): > 1 µM; IC50 (HUT78): ≤ 0.1 µM; IC50 (TOV112D): ≤ 0.1 µM; IC50 (REC1): ≤ 0.1 µM; IC50 (HEPG2): 0.1 to 0.5 µM; IC50 (MDAMB231): > 1 µM
Cc1ccc(COCCN)cc1Nc1ncc(-c2ccc(-n3cccn3)cc2)o1 [Example 024, [5-(2-Amino-ethoxymethyl)-2-methyl-phenyl]-[5-(4-pyrazol-1-yl-phenyl)-oxazol-2-yl]-amine] | > 1 µM | > 1 µM | > 1 µM | > 1 µM | > 1 µM | > 1 µM | > 1 µM | > 1 µM | > 1 µM | > 1 µM | > 1 µM | > 1 µM | > 1 µM | > 1 µM | > 1 µM | > 1 µM | > 1 µM | > 1 µM | > 1 µM | > 1 µM | IC50 (PC3): > 1 µM; IC50 (CALU6): > 1 µM; IC50 (DLD1): > 1 µM; IC50 (HUT78): > 1 µM; IC50 (TOV112D): > 1 µM; IC50 (REC1): > 1 µM; IC50 (HEPG2): > 1 µM; IC50 (MDAMB231): > 1 µM
CCOCc1cc(COCC)cc(Nc2ncc(-c3ccc(-n4cccn4)cc3)o2)c1 [Example 022, (3,5-Bis-(ethoxymethyl)-phenyl)-[5-(4-pyrazol-1-yl-phenyl)-oxazol-2-yl]-amine] | 0.5 to 1 µM | 0.1 to 0.5 µM | > 1 µM | > 1 µM | > 1 µM | > 1 µM | > 1 µM | > 1 µM | > 1 µM | > 1 µM | > 1 µM | > 1 µM | > 1 µM | > 1 µM | > 1 µM | 0.5 to 1 µM | > 1 µM | > 1 µM | > 1 µM | > 1 µM | IC50 (PC3): > 1 µM; IC50 (CALU6): > 1 µM; IC50 (DLD1): > 1 µM; IC50 (HUT78): > 1 µM; IC50 (TOV112D): > 1 µM; IC50 (REC1): 0.5 to 1 µM; IC50 (HEPG2): > 1 µM; IC50 (MDAMB231): > 1 µM

Continued, in another order:

IC50 [1] | SMILES | IC50 (KARPAS299) | IC50 (HGC27) | IC50 (HL60) | IC50 (PLCPRF5) | IC50 (HCT116) | IC50 (ACHN) | IC50 (DU145) | IC50 (MESSA) | IC50 (A549) | IC50 (SW579) | IC50 (PANC1) | IC50 (HEP2) | IC50 (BXPC3) | IC50 (CLS354) | IC50 (OPM2) | IC50 (BT20) | IC50 (H1299) | IC50 (AGS) | IC50 (A498) | also measured
> 1 µM | CCOCc1ccc(C)c(Nc2ncc(-c3ccc(-n4cc(C)cn4)cc3)o2)c1 [Example 040, (5-Ethoxymethyl-2-methyl-phenyl)-{5-[4-(4-methyl-pyrazol-1-yl)-phenyl]-oxazol-2-yl}-amine] | > 1 µM | > 1 µM | > 1 µM | > 1 µM | > 1 µM | > 1 µM | > 1 µM | > 1 µM | > 1 µM | > 1 µM | > 1 µM | > 1 µM | > 1 µM | > 1 µM | > 1 µM | > 1 µM | > 1 µM | > 1 µM | > 1 µM | IC50 (PC3): > 1 µM; IC50 (CALU6): > 1 µM; IC50 (DLD1): > 1 µM; IC50 (HUT78): > 1 µM; IC50 (TOV112D): > 1 µM; IC50 (REC1): > 1 µM; IC50 (HEPG2): > 1 µM; IC50 (MDAMB231): > 1 µM
> 1 µM | CCOCc1ccc(C)c(Nc2ncc(-c3ccc(N4CCN(CCN)C4=O)cc3)o2)c1 [Example 045, 1-(2-Amino-ethyl)-3-{4-[2-(5-ethoxymethyl-(2-methyl-phenylamino))-oxazol-5-yl]-phenyl}-imidazolidin-2-one] | > 1 µM | > 1 µM | > 1 µM | > 1 µM | > 1 µM | > 1 µM | > 1 µM | > 1 µM | > 1 µM | > 1 µM | > 1 µM | > 1 µM | > 1 µM | > 1 µM | > 1 µM | > 1 µM | > 1 µM | > 1 µM | > 1 µM | IC50 (PC3): > 1 µM; IC50 (CALU6): > 1 µM; IC50 (DLD1): > 1 µM; IC50 (HUT78): > 1 µM; IC50 (TOV112D): > 1 µM; IC50 (REC1): > 1 µM; IC50 (HEPG2): > 1 µM; IC50 (MDAMB231): > 1 µM
0.1 to 0.5 µM | CCOCc1ccc(C)c(Nc2ncc(-c3ccc(N4CCN(C)C4=O)cc3)o2)c1 [Example 044, 1-{4-[2-(5-Ethoxymethyl-(2-methyl-phenylamino))-oxazol-5-yl]-phenyl}-3-methyl-imidazolidin-2-one] | 0.1 to 0.5 µM | > 1 µM | 0.1 to 0.5 µM | > 1 µM | > 1 µM | > 1 µM | > 1 µM | > 1 µM | > 1 µM | > 1 µM | > 1 µM | > 1 µM | > 1 µM | 0.5 to 1 µM | 0.5 to 1 µM | > 1 µM | > 1 µM | > 1 µM | > 1 µM | IC50 (PC3): 0.5 to 1 µM; IC50 (CALU6): > 1 µM; IC50 (DLD1): > 1 µM; IC50 (HUT78): 0.5 to 1 µM; IC50 (TOV112D): > 1 µM; IC50 (REC1): 0.1 to 0.5 µM; IC50 (HEPG2): > 1 µM; IC50 (MDAMB231): > 1 µM
